# Test results reported in patent publication US20080193963A1, “Method of Determining the State of Activation of a Protein” (NAMBITION GMBH, priority 2005, published 2008).
# Biological target: T1, NhaA (Escherichia coli, UniProt P13738)
# T1 construct: Pulling NhaA (402aa) from either the N- or C-terminus; His6 (C); made in house; host or cells: E. coli BL21(DE3)
# Assay: Single-molecule force spectroscopy (SMFS) unfolding of NhaA in presence of inhibitor
# Type: binding
# Protocol: We used a NanoWizard AFM (JPK Instruments, Germany) with an 850 nm laser detection system. As AP absorbs light between 290 and 350 nm, we avoided double-photon excitation and photobleaching by the laser. The spring constants of the 200 μm long (di-Veeco, USA) and 80μ long (Olympus, Japan) Si3N4 AFM cantilevers used were determined using the equipartion theorem (Butt H. J., 1995; Florin, 1995). NhaA was reconstituted into E. coli polar lipid bilayers forming two-dimensional crystals (Williams et al., 1999). Membranes were immobilized on freshly cleaved mica in 200 mM KCl, 10% glycerol, 25 mM K^+-acetate, pH 4.0 for 20 min. Experiments were performed in buffer solutions containing 190 mM KCl and 10 mM NaCl at pH 7.7 (20 mM tris-HCl) and pH 4.0 (20 mM citric acid). AP concentrations of prepared solutions were determined by their optical densities at λ=305.5 using the excitation coefficient eAP=7500 M^−1·cm^−1 (Additional Ref. 151). Solutions containing AP were kept away from light and experiments were performed in a dark room. Buffer solutions were made in fresh nano-pure water (18.2MΩ·cm^−1), using p. a. purity grade reagents from Sigma/Merck. AFM topographs of immobilized membrane patches resolved the crystalline NhaA arrangements, which were selected to unfold individual proteins (Kedrov et al., 2004).
# Only C-terminal unfolding events were studied as they are dominant at pH 7.7 (Additional Ref. 152). To obtain the unfolded polpeptide chain length each force peak was fifted using the worm-like-chain (Bustamante et al., 1994) model as described ([…]). Individual unfolding barriers were located by subtracting the unfolded polypeptide length fron the C-terminus. For each force peak (unfolding barrier) the probability and average forces were calculated. At every studied condition up to 150 single-molecule unfolding events were analyzed using Igor Pro (Wavemetrics Inc., USA) and home-written macros. To probe the statistical difference of data sets the data were tested against one-way ANOVA analysis.
# T1 sequence (P13738 whole entry): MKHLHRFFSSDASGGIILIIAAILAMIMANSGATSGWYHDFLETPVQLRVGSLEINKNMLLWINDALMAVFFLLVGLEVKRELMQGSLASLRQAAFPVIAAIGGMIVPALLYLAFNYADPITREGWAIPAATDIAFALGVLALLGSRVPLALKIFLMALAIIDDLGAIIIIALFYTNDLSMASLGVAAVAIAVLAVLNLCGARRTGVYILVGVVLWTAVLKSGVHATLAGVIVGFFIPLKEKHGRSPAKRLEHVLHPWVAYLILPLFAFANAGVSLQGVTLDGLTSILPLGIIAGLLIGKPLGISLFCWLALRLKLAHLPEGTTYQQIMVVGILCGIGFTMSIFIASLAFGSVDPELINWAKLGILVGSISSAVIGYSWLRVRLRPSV
smiles,measurement,setting,value
"NC1=Nc2cccc3cccc(c23)N1 [AP, 2-aminoperimidine]","""stable"" fraction in histograms of force at helix IX (AP binding) with increasing Na+ concentration","40 μM AP, 10 or 200 μM NaCl as printed",drastic decrease
same,average strength of the interaction detected by the 125aa force peak (helix XI as printed),"40 μM AP, NhaA activated at pH 7.7, mean ±SD, n=95, without AP 75±29 pN (n=61), p<0.0001",105±41 pN
same,enhanced interaction strength of a fraction of NhaA molecules (125aa peak) after exposure to AP,"pH 7.7, NhaA.AP complex population, free NhaA ≈75 pN",≈ 140 pN
same,NhaA molecules that established enhanced stability at α-helix IX,"pH-locked conformation, pH 4.0, incubated with 40 μM AP",≈ 15%
